Columns and labels:
[1] = test system: amyloid β-derived diffusible ligand (ADDL) induced synaptotoxicity; details: cited from earlier work
[2] = test system: PrP^Sc-induced synaptotoxicity on hippocampal neurons; details: cited from earlier work
[3] = test system: PrP^Sc-induced synaptotoxicity on hippocampal neurons; assay: cells; type: cell-based, mice
[4] = biological target: CKIε (Homo sapiens, UniProt P49674); details: Verkaar et al. (2011); cited from earlier work
[5] = biological target: CKIδ (Homo sapiens, UniProt P48730); details: Verkaar et al. (2011); cited from earlier work
[6] = test system: PrP^Sc-induced synaptotoxicity on hippocampal neurons; type: cell-based, mice

Chain of CKIδ (P48730 whole entry, species assumed): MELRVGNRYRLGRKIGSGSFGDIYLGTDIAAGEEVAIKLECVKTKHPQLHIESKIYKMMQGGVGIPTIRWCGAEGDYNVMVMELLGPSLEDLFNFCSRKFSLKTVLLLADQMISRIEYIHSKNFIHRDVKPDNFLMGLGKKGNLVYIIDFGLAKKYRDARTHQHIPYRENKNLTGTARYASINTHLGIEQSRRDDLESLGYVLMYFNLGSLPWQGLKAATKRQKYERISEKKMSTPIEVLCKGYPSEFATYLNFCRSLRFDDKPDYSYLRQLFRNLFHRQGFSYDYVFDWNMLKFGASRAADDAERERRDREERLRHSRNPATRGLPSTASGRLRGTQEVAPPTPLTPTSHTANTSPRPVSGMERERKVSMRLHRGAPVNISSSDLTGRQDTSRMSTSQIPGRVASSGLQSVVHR
Chain of CKIε (P49674 whole entry, species assumed): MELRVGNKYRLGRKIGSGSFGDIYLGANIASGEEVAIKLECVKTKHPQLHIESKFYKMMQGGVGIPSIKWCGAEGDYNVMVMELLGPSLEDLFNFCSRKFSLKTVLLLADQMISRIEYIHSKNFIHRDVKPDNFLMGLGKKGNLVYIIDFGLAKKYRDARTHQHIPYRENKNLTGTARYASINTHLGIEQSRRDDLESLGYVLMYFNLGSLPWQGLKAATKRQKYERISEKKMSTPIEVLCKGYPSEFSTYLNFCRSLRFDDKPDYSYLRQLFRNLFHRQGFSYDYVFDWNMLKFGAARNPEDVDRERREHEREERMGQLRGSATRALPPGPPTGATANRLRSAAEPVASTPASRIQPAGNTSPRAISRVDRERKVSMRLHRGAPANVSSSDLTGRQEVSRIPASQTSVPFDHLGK

For `Cc1cccc(C#Cc2ccccc2)n1` [MPEP], the “Effect on Aβ oligomer induced dendritic spine retraction / loss” value [1] is listed as “blocked” and the “Effect on PrP^Sc-induced retraction of dendritic spines / synaptotoxicity” value [2] is listed as “had no influence”.

For `COc1nccc(-c2c(-c3ccc(F)cc3)ncn2C2CCC(O)CC2)n1` (centres unmarked) [SB239063], the “Effect against ADDL induced synaptotoxicity” value [1] is listed as “ineffective”, the “Effect on Aβ oligomer induced dendritic spine retraction / loss” value [1] is listed as “no significant effect” and the “Effect on spine retraction caused by PrP^Sc” value [3] is listed as “prevented spine retraction”. For the same molecule, the “Reversal of dendritic spine retraction accrued during first 24 hrs of PrP^Sc treatment” value [3] was “able to reverse the dendritic spine retraction”, the “Inhibition of casein kinase isoform CKIε” value [4] was “reported to inhibit” and the “Inhibition of casein kinase isoform CKIδ” value [5] was “reported to inhibit”. The “Effect on PrP^Sc-induced retraction of dendritic spines / synaptotoxicity” value [2] was “blocked”.

For `O=c1ncn2nc(Sc3ccc(F)cc3F)ccc2c1-c1c(Cl)cccc1Cl` [neflamapimod], the “Effect on PrP^Sc effects on mEPSC properties (frequency and amplitude)” value [6] is given as “blocked”, the “Effect against ADDL induced synaptotoxicity” value [1] is given as “showed positive effects” and the “Dose dependence of effect on PrP^Sc-induced spine loss” value [3] is given as “dose dependent”. For the same molecule, the “Effect on PrP^Sc effects on dendritic spine number” value [3] was “blocked” and the EC50 ([3]; Mus musculus, Hippocampal neuron, 24 h, read-out: EC50 of dose response curve for the rescuing effect on spine number) was 0.0289 µM.

Source: patent publication US20220387432A1 (priority 2019, published 2022)
